Data set [1] can be described thus: Drug level in tumor of human GTL16 cells xenografted in mouse assessed as tumor regression at 100 mg/kg, po qd for 5 days 2 to 10 hrs after last dose. The format is ADME, organism-based, Neoplasm. Also on record: dose 100 mg/kg, route oral. As to conditions: in vivo. (A xenograft is tissue or cells of one species grown in another, often human tumour cells in immunodeficient mice.)

Data set [2] in a line: AUC (0 to infinity) in rat at 1 mg/kg, iv. As to conditions: plasma. The data set is classed as ADME, organism-based. Also on record: time infinity, dose 1 mg/kg, route intravenous.
Data set [3] can be described thus: Half life in rat at 1 mg/kg, iv. The data set is classed as ADME, organism-based. Also on record: dose 1 mg/kg, route intravenous. As to conditions: in vivo.
Data set [4] is described as follows: AUC (0 to infinity) in rat at 5 mg/kg, po. The format is ADME, organism-based. Details: time infinity, dose 5 mg/kg, route oral. As to conditions: plasma.
A short description of data set [5]: Oral bioavailability in rat at 5 mg/kg. The data set is classed as ADME, organism-based. As to conditions: in vivo.
Data set [6] is described as follows: Clearance in rat at 1 mg/kg, iv. As to conditions: in vivo. The format is ADME, organism-based. Also on record: dose 1 mg/kg, route intravenous.
A short description of data set [7]: Drug level in tumor of human GTL16 cells xenografted in mouse assessed as tumor regression at 100 mg/kg, po qd for 5 days 10 hrs after last dose. The format is ADME, organism-based, Neoplasm. Also on record: dose 100 mg/kg, route oral. As to conditions: read-out: Drug uptake.

For orientation: AUC(0-inf) means total exposure, with the tail of the curve extrapolated. High values mean high exposure, low ones low exposure. What is called half-life is the time needed for the level to fall by half in the phase considered. As usually defined, the bioavailability is the share of a dose that reaches the circulation, judged against a reference dose that is usually intravenous. The low end stands for poor availability, the high end for good availability. Usually clearance stands for a measure of how efficiently the substance is removed, as volume per time. A high value points to efficient removal. `CCOC(=O)N1CCCOc2cc(Nc3ncc(Cl)c(Nc4c(F)cccc4C(=O)NC)n3)ccc21`: the Drug uptake in data set [1] amounted to 125 ng/g. In addition, the AUC(0-inf) in data set [2] stood at 1220 ng·h/mL; in data set [4] it was 913 ng·h/mL. Also, in data set [3], the half-life is 72 min. The molecule also yielded a bioavailability in data set [5] of 15%. The clearance in data set [6] stood at 15.3 mL/min/kg.

The molecule `CCN1CCCOc2cc(Nc3ncc(Cl)c(Nc4c(F)cccc4C(=O)NC)n3)ccc21` returned an AUC(0-inf) in data set [4] below 100 ng·h/mL.

Take `CNC(=O)c1cccc(F)c1Nc1nc(Nc2ccc3c(c2)OCCCN3CCN2CCCC2)ncc1Cl`: the AUC(0-inf) in data set [4] is below 100 ng·h/mL.

For the molecule `CNC(=O)c1cccc(F)c1Nc1nc(Nc2ccc3c(c2)OCCCN3)ncc1Cl`, the concentration at 10 h in data set [7] was above 200 ng/g. The same molecule showed a half-life in data set [3] of 18 min. Moreover, in data set [6], the clearance came out at 34 mL/min/kg.

Source of the values: ChEMBL document CHEMBL1641465, “2,4-Diaminopyrimidine inhibitors of c-Met kinase bearing benzoxazepine anilines” (Bioorg Med Chem Lett, 2011).
